Test results: PMC7083880 (Nature Communications, 2020)
“And” between values parts separate entries of the source, which are not always exact repeats. Equal values may be shown once.

Legend:
Type in all cases: cell-based, human
[1] = test system: firefly luciferase (Fluc) gene with UAG nonsense codon at position 109 in HeLa cells; assay: Firefly luciferase readthrough assay, UAG PTC construct
[2] = test system: endogenous TP53 gene with UGA nonsense mutation in Calu-6 cells; assay: p53 protein western blot, Calu-6 cells; conditions: 24 h
Description: After 24 h of treatment, proteins were extracted from the cells and the p53 protein was assessed by western blotting (Fig. 2a). After DMSO mock treatment, as anticipated, no p53 protein was detected, because of the presence of the PTC in p53 mRNA[33].
The three leftmost lanes show twofold serial dilutions of untreated HeLa cell extract. The molecular weight is indicated to the left of each gel. b Schematic representation of the construct used to measure the function of p53. The construct carries a cDNA encoding the firefly luciferase under a promoter having two p53-responsive elements (underlined). […] The level of p21 mRNA is related to the amount of functional p53 protein synthesized in the cell. The results presented in panels b and c are representative of at least two independent experiments., p-values (p) were calculated using Student’s t-test. Source data are provided as a Source Data file.
Proteins were extracted from 2 × 10^6 cells in lysis buffer containing 5% SDS, 50 mM Tris–HCl pH 7, 20 mM EDTA, and a protease inhibitor cocktail (HALT Protease Inhibitor Cocktail, Pierce-Biotechnology, Rockford, IL, USA). Lysates were subjected to 30 pulses of sonication (Branson Digital Sonifier/amplitude 20%) before a 5 min centrifugation at 8000×g.
The equivalent of 2.5 × 10^5 cells was subjected to 10% SDS–PAGE before transfer of the proteins to a nitrocellulose membrane. […] Antibodies were then detected with Super Signal West Femto Maximum Sensitivity Substrate (Pierce-Biotechnology, Rockford, IL, USA). Quantifications were performed with QuantityOne software (Biorad). […]

[3] = test system: wild-type TP53 in HeLa cells; assay: p53 function: luciferase under promoter with two p53-responsive elements, HeLa

Which “Luciferase activity, UAG PTC” value ([1]; DAP 3.75µM, average of 2 experiments) does the source give for `Nc1nc(N)c2[nH]cnc2n1` [DAP, 2,6-diaminopurine] here?
The value was 366.5±43 and 366.5.

What about the “Luciferase activity, UAG PTC” value ([1]; DAP 3.75µM, experiment 1) of the same compound?
The value was 336.

And the “Luciferase activity, UAG PTC” value ([1]; DAP 3.75µM, experiment 2)?
Its value is 397.

And the “Luciferase activity, UAG PTC” value ([1]; DAP 37.5µM, average of 2 experiments)?
Its value is 451.5±145 and 451.5.

And the “Luciferase activity, UAG PTC” value ([1]; DAP 37.5µM, experiment 1)?
Its value is 349.

And the “Luciferase activity, UAG PTC” value ([1]; DAP 37.5µM, experiment 2)?
Its value is 554.

And the “Synthesis of p53 protein (western blot)” value ([2]; Calu-6 (UGA))?
The value was “dose-dependent synthesis of the p53 protein”.

What about the “Lowest concentration at which p53 protein was detected” value ([2]; Calu-6, western blot) of the same compound?
Its value is 1.56 µM.

What about the “Luciferase activity, p53-responsive promoter construct (DMSO = 1)” value (“Luciferase activity … (DMSO = 1)” below) ([3]; 6.25µM, FL922) of the same compound?
Its value is 0.8852.

What about the “Luciferase activity … (DMSO = 1)” value ([3]; 6.25µM, FL932) of the same compound?
The value was 0.9803.

And the “Luciferase activity … (DMSO = 1)” value ([3]; 6.25µM, FL934)?
The value was 0.8382.

What about the “Luciferase activity … (DMSO = 1)” value ([3]; 6.25µM, average) of the same compound?
Its value is 0.9012.

What about the “Luciferase activity … (DMSO = 1)” value ([3]; 25µM, FL922) of the same compound?
Its value is 0.7844.

And the “Luciferase activity … (DMSO = 1)” value ([3]; 25µM, FL932)?
Its value is 0.8921.

And the “Luciferase activity … (DMSO = 1)” value ([3]; 25µM, FL934)?
The value was 1.092.

And the “Luciferase activity … (DMSO = 1)” value ([3]; 25µM, average)?
The value was 0.9228.

What about the “Luciferase activity under p53-responsive promoter, in words” value ([3]; wild-type TP53) of the same compound?
The value was “failure of DAP to cause a luciferase activity increase”.

`CN[C@@H]1[C@@H](O)[C@@H](O[C@@H]2[C@@H](O)[C@H](O[C@H]3O[C@H]([C@@H](C)O)[C@@H](O)[C@H](O)[C@H]3N)[C@@H](N)C[C@H]2N)OC[C@]1(C)O` [G418, reference compound] was tested. Which “Luciferase activity, UAG PTC” value ([1]; G418 1mg/ml, average of 2 experiments) did it give?
The value was 2275.5±805 and 2275.5.

What about the “Luciferase activity, UAG PTC” value ([1]; G418 1mg/ml, experiment 1) of the same compound?
The value was 2845.

And the “Luciferase activity, UAG PTC” value ([1]; G418 1mg/ml, experiment 2)?
The value was 1706.

And the “p53 protein detection (western blot)” value ([2]; 25 µM, Calu-6)?
The value was “barely detected”.

And the “Luciferase activity … (DMSO = 1)” value ([3]; 25µM, FL922)?
The value was 0.9453.

And the “Luciferase activity … (DMSO = 1)” value ([3]; 25µM, FL932)?
The value was 0.904.

What about the “Luciferase activity … (DMSO = 1)” value ([3]; 25µM, FL934) of the same compound?
The value was 1.071.

What about the “Luciferase activity … (DMSO = 1)” value ([3]; 25µM, average) of the same compound?
The value was 0.9735.

And the “Luciferase activity … (DMSO = 1)” value ([3]; 600µM, FL922)?
The value was 0.9542.

What about the “Luciferase activity … (DMSO = 1)” value ([3]; 600µM, FL932) of the same compound?
The value was 0.6225.

And the “Luciferase activity … (DMSO = 1)” value ([3]; 600µM, FL934)?
Its value is 1.017.

What about the “Luciferase activity … (DMSO = 1)” value ([3]; 600µM, average) of the same compound?
Its value is 0.8645.
